Data: patent publication US10364238B2, “N-((het) arylmethyl)-heteroaryl-carboxamides compounds as plasma kallikrein inhibitors” (KALVISTA PHARMACEUTICALS LIMITED, priority 2014, dated 2019)

Legend:
Human plasma kallikrein = Human plasma kallikrein (Homo sapiens (Human), UniProt P03952); assay: Determination of the IC50 for plasma kallikrein; type: biochemical; details: 25° C., fluorogenic substrate H-DPro-Phe-Arg-AFC; read-out: IC50 (human PKaI)
Protocol: Determination of the IC50 for Plasma Kallikrein
(§1) Human plasma kallikrein (Protogen) was incubated at 25° C. with the fluorogenic substrate H-DPro-Phe-Arg-AFC and various concentrations of the test compound. Residual enzyme activity (initial rate of reaction) was determined by measuring the change in […] at 410 nm and the IC50 value for the test compound was determined.

Human KLK1 = Human KLK1 (Homo sapiens (Human), UniProt P06870); assay: Determination of the IC50 for KLK1; type: biochemical; details: 25° C., fluorogenic substrate H-DVal-Leu-Arg-AFC
Protocol: Determination of the IC50 for KLK1
as §1, with “KLK1 (Callbiochem)” for “plasma kallikrein (Protogen)”, “H-DVal-Leu-Arg-AFC” for “H-DPro-Phe-Arg-AFC”

Chain of Human KLK1 (P06870 25-262): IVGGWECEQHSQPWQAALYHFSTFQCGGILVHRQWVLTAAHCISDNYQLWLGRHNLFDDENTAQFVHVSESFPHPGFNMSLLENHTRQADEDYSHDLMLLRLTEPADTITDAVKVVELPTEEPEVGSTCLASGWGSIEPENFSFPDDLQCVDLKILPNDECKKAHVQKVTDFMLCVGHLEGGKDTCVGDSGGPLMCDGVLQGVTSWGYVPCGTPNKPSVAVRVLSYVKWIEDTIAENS
Chain of Human plasma kallikrein (P03952 391-638): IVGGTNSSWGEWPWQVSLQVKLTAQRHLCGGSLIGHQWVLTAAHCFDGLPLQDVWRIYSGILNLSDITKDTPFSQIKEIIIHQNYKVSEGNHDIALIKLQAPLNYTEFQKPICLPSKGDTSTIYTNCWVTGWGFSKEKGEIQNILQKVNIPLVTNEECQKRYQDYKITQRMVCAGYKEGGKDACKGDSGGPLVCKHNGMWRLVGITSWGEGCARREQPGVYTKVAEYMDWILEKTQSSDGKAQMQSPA
Chain of Human plasma kallikrein (P03952 20-390 partner): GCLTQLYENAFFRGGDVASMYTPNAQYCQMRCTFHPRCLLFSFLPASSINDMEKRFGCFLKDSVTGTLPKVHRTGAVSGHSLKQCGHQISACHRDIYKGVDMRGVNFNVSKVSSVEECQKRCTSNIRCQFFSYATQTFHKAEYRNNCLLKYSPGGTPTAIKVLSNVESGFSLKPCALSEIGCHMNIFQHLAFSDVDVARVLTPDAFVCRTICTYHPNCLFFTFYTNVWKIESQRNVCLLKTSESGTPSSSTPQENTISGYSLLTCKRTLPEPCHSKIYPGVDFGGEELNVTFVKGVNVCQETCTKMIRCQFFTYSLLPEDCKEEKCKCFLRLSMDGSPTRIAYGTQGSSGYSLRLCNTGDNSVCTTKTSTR

Row | Compound | IC50 (Human plasma kallikrein) | IC50 (Human KLK1)
1 | COc1cc(F)c(CNC(=O)c2cn(Cc3ccc(Cn4cc(C)cn4)cc3)nc2C(F)(F)F)c(F)c1 [Example 11, N-[(2,6-difluoro-4-methoxyphenyl)methyl]-1-({4-[(4-methylpyrazol-1-yl)methyl]pheny}methyl)-3-(trifluoromethyl)pyrazole-4-carboxamide] | 456 nM | –
2 | Cc1cnn(Cc2ccc(Cn3cc(C(=O)NCc4c(F)cccc4F)c(C(F)(F)F)n3)cc2)c1 [Example 13, N-[(2,6-difluorophenyl)methyl]-1-({4-[(4-methylpyrazol-1-yl)methyl]phenyl}methyl)-3-(trifluoromethyl)pyrazole-4-carboxamide] | 439 nM | > 10000 nM
3 | Cc1ccc(CNC(=O)c2cn(Cc3ccc(Cn4cc(C)cn4)cc3)nc2C(F)(F)F)c(C)c1 [Example 24, N-[(2,4-dimethylphenyl)methyl]-1-({4-[(4-methylpyrazol-1-yl)methyl]phenyl}methyl)-3-(trifluoromethyl)pyrazole-4-carboxamide] | 717 nM | > 10000 nM
4 | Cc1cc(C)c(CNC(=O)c2cn(Cc3ccc(Cn4cc(C)cn4)cc3)nc2C(F)(F)F)c(C)c1 [Example 26, 1-({4-[(4-methylpyrazol-1-yl)methyl]phenyl}methyl)-3-(trifluoromethyl)-N-[(2,4,6-trimethylphenyl)methyl]pyrazole-4-carboxamide] | 1340 nM | > 10000 nM
5 | COCc1nn(Cc2ccc(Cn3ccccc3=O)cc2)cc1C(=O)NCc1cnccc1C(F)(F)F [Example 31, 3-(methoxymethyl)-1-({4-[(2-oxopyridin-1-yl)methyl]phenyl}methyl)-N-{[4-(trifluoromethyl)pyridin-3-yl]methyl}pyrazole-4-carboxamide] | 392 nM | > 10000 nM
6 | Cc1ccc(CNC(=O)c2cn(Cc3ccc(Cn4cc(C)cn4)cc3)nc2C(F)(F)F)c(F)c1 [Example 28, N-[(2-fluoro-4-methylphenyl)methyl]-1-({4-[(4-methylpyrazol-1-yl)methyl]phenyl}methyl)-3-(trifluoromethyl)pyrazole-4-carboxamide] | 280 nM | > 10000 nM
7 | COCc1nn(Cc2ccc(Cn3ccccc3=O)cc2)cc1C(=O)NCc1csc2ccc(Cl)cc12 [Example 45, N-[(5-chloro-1-benzothiophen-3-yl)methyl]-3-(methoxymethyl)-1-({4-[(2-oxopyridin-1-yl)methyl]phenyl}methyl)pyrazole-4-carboxamide] | 144 nM | > 10000 nM
8 | Cc1cnn(Cc2ccc(Cn3cc(C(=O)NCc4cc(Cl)ccn4)c(C(F)(F)F)n3)cc2)c1 [Example 30, N-[(4-chloropyridin-2-yl)methyl]-1-({4-[(4-methylpyrazol-1-yl)methyl]phenyl}methyl)-3-(trifluoromethyl)pyrazole-4-carboxamide] | 915 nM | > 10000 nM
9 | Cc1cnn(Cc2ccc(Cn3cc(C(=O)NCc4cc(Cl)ccc4C(F)(F)F)c(C(F)(F)F)n3)cc2)c1 [Example 23, N-{[5-chloro-2-(trifluoromethyl)phenyl]methyl}-1-({4-[(4-methylpyrazol-1-yl)methyl]phenyl}methyl)-3-(trifluoromethyl)pyrazole-4-carboxamide] | 1060 nM | > 10000 nM
10 | COCc1nn(Cc2ccc(Cn3ccccc3=O)cc2)cc1C(=O)NCc1cc(OC)ccc1C(N)=O [Example 86, N-[(2-carbamoyl-5-methoxyphenyl)methyl]-3-(methoxymethyl)-1-({4-[(2-oxopyridin-1-yl)methyl]phenyl}methyl)pyrazole-4-carboxamide] | 8.7 nM | > 40000 nM
11 | Cc1cnn(Cc2ccc(Cn3cc(C(=O)NCc4c(Cl)cccc4Cl)c(C(F)(F)F)n3)cc2)c1 [Example 22, N-[(2,6-dichlorophenyl)methyl]-1-({4-[(4-methylpyrazol-1-yl)methyl]phenyl}methyl)-3-(trifluoromethyl)pyrazole-4-carboxamide] | 1350 nM | > 10000 nM
12 | COc1ccc(CNC(=O)c2cn(Cc3ccc(Cn4cc(C)cn4)cc3)nc2C(F)(F)F)c(C(F)(F)F)c1 [Example 12, N-{[4-methoxy-2-(trifluoromethyl)phenyl]methyl}-1-({4-[(4-methylpyrazol-1-yl)methyl]phenyl}methyl)-3-(trifluoromethyl)pyrazole-4-carboxamide] | 746 nM | > 10000 nM
13 | COc1ccc(CNC(=O)c2cn(Cc3ccc(Cn4cc(C)cn4)cc3)nc2C(F)(F)F)c(OC)c1 [Example 10, N-[(2,4-dimethoxyphenyl)methyl]-1-({4-[(4-methylpyrazol-1-yl)methyl]phenyl}methyl)-3-(trifluoromethyl)pyrazole-4-carboxamide] | 1270 nM | > 10000 nM

The remaining lines, values ahead:

Row | IC50 (Human plasma kallikrein) | IC50 (Human KLK1) | Compound
14 | 1800 nM | > 10000 nM | NC(=O)c1ccc(CNC(=O)c2cn(Cc3ccc(Cn4ccccc4=O)cc3)nc2C2CC2)cc1 [Example 50, N-[(4-carbamoylphenyl)methyl]-3-cyclopropyl-1-({4-[(2-oxopyridin-1-yl)methyl]phenyl}methyl)pyrazole-4-carboxamide]
15 | > 10000 nM | > 10000 nM | Cc1cnn(Cc2ccc(Cn3cc(C(=O)NCc4cccc(OC(F)(F)F)c4)c(C(F)(F)F)n3)cc2)c1 [Example 7, 1-({4-[(4-methylpyrazol-1-yl)methyl]phenyl}methyl)-N-{[3-(trifluoromethoxy)phenyl]methyl}-3-(trifluoromethyl)pyrazole-4-carboxamide]
16 | 257 nM | > 10000 nM | Cc1cnn(Cc2ccc(Cn3cc(C(=O)NCc4c(C(F)(F)F)ccc(Cl)c4F)c(C(F)(F)F)n3)cc2)c1 [Example 21, N-{[3-chloro-2-fluoro-6-(trifluoromethyl)phenyl]methyl}-1-({4-[(4-methylpyrazol-1-yl)methyl]phenyl}methyl)-3-(trifluoromethyl)pyrazole-4-carboxamide]
17 | 865 nM | > 10000 nM | Cc1cnn(Cc2ccc(Cn3cc(C(=O)NCc4ccc(Cl)cc4F)c(C(F)(F)F)n3)cc2)c1 [Example 17, N-[(4-chloro-2-fluorophenyl)methyl]-1-({4-[(4-methylpyrazol-1-yl)methyl]phenyl}methyl)-3-(trifluoromethyl)pyrazole-4-carboxamide]
18 | 136 nM | > 10000 nM | COc1cccc(CNC(=O)c2cn(Cc3ccc(Cn4cc(C)cn4)cc3)nc2C(F)(F)F)c1F [Example 4, N-[(2-fluoro-3-methoxyphenyl)methyl]-1-({4-[(4-methylpyrazol-1-yl)methyl]phenyl}methyl)-3-(trifluoromethyl)pyrazole-4-carboxamide]
19 | > 10000 nM | > 10000 nM | Cc1cnn(Cc2ccc(Cn3cc(C(=O)NCc4cccc(F)c4C)c(C(F)(F)F)n3)cc2)c1 [Example 27, N-[(3-fluoro-2-methylphenyl)methyl]-1-({4-[(4-methylpyrazol-1-yl)methyl]phenyl}methyl)-3-(trifluoromethyl)pyrazole-4-carboxamide]
20 | 753 nM | > 10000 nM | COCc1nn(Cc2ccc(Cn3cc(C)cn3)cc2)cc1C(=O)NCc1csc2ccc(Cl)cc12 [Example 47, N-[(5-chloro-1-benzothiophen-3-yl)methyl]-3-(methoxymethyl)-1-({4-[(4-methylpyrazol-1-yl)methyl]phenyl}methyl)pyrazole-4-carboxamide]
21 | 740 nM | > 10000 nM | Cc1cnn(Cc2ccc(Cn3cc(C(=O)NCc4cc(Cl)ccc4F)c(C(F)(F)F)n3)cc2)c1 [Example 20, N-[(5-chloro-2-fluorophenyl)methyl]-1-({4-[(4-methylpyrazol-1-yl)methyl]phenyl}methyl)-3-(trifluoromethyl)pyrazole-4-carboxamide]
22 | 219 nM | > 10000 nM | Cc1cnn(Cc2ccc(Cn3cc(C(=O)NCc4c(F)cccc4C(F)(F)F)c(C(F)(F)F)n3)cc2)c1 [Example 15, N-{[2-fluoro-6-(trifluoromethyl)phenyl]methyl}-1-({4-[(4-methylpyrazol-1-yl)methyl]phenyl}methyl)-3-(trifluoromethyl)pyrazole-4-carboxamide]
23 | 5.5 nM | > 10000 nM | COCc1nn(Cc2ccc(Cn3cc(F)ccc3=O)cc2)cc1C(=O)NCc1c(F)ccc(OC)c1F [Example 108, N-[(2,6-difluoro-3-methoxyphenyl)methyl]-1-({4-[(5-fluoro-2-oxopyridin-1-yl)methyl]phenyl}methyl)-3-(methoxymethyl)pyrazole-4-carboxamide]
24 | 1130 nM | > 10000 nM | Cc1cnn(Cc2ccc(Cn3cc(C(=O)NCc4cccc(Cl)c4F)c(C(F)(F)F)n3)cc2)c1 [Example 19, N-[(3-chloro-2-fluorophenyl)methyl]-1-({4-[(4-methylpyrazol-1-yl)methyl]phenyl}methyl)-3-(trifluoromethyl)pyrazole-4-carboxamide]
25 | 373 nM | > 10000 nM | Cc1cnn(Cc2ccc(Cn3cc(C(=O)NCc4c(F)ccc(Cl)c4F)c(C(F)(F)F)n3)cc2)c1 [Example 18, N-[(3-chloro-2,6-difluorophenyl)methyl]-1-({4-[(4-methylpyrazol-1-yl)methyl]phenyl}methyl)-3-(trifluoromethyl)pyrazole-4-carboxamide]
26 | 263 nM | > 10000 nM | Cc1cnn(Cc2ccc(Cn3cc(C(=O)NCc4c(F)cc(Cl)cc4F)c(C(F)(F)F)n3)cc2)c1 [Example 16, N-[(4-chloro-2,6-difluorophenyl)methyl]-1-({4-[(4-methylpyrazol-1-yl)methyl]phenyl}methyl)-3-(trifluoromethyl)pyrazole-4-carboxamide]
